# Measurements as given in patent US8809358B2, “Use of IκB-kinase inhibitors in pain therapy” (Sanofi-Aventis Deutschland GmbH, priority 2002, dated 2014).
# Tested on: Zymosan-induced paw inflammation
# Experiment: Zymosan-induced paw inflammation in the rat: paw withdrawal time during thermal stimulation (Hargreaves test)
# Assay type: in vivo
# Details: for Change in the paw withdrawal time (%): 30 mg/kg i.p. 15 min before, 2.5 and 5.5 h after Zymosan
# Protocol: • Zymosan-induced paw inflammation in the rat; • Parameter: paw withdrawal time or paw withdrawal threshold during thermal or mechanical stimulation of the hind paw. 2nd Model: • Kaolin/carrageenan-induced knee joint inflammation in the rat; • Parameter: reaction of spinal neurons during pressure stimulation of the knee. Model 1
# Experimental implementation: in short-term anesthesia using isoflurane, 1 mg of Zymosan (as a suspension in 100 μl of PBS (phosphate-buffered salt solution)) was injected subcutaneously into the middle of the plantar side of one of the experimental animal's hind paws. After that, two different behavioral tests were used to quantitatively determine the development of a hyperalgesia.
# a) Determining the Paw Withdrawal Time During Thermal Stimulation (Hargreaves Test).
# The experimental animal was placed in a transparent plastic chamber having a glass floor. As soon as the experimental animal was no longer moving, following the reconnaissance phase (about 5 min), an infrared light source was positioned directly below the hind paw to be stimulated and switched on. The lamp emitted focused infrared light of increasing intensity, such that the skin temperature of the hind paw increased almost linearly. As soon as the animal withdrew the paw, the lamp switched itself off. The temperature of the paw at the time it is withdrawn has just become unpleasant for the animal; this is referred to as the thermal pain threshold.
# About half an hour before, and at various times after, the Zymosan injection, the thermal and mechanical pain thresholds were determined on the right hind paw and on the left hind paw (see Tables 1, 2). The decrease in the ipsilateral pain threshold, expressed in % of the contralateral pain threshold, was then calculated (see Tables 1, 2). The degree of hyperalgesia is directly proportional to the magnitude of this decrease.
# In a control group, the Zymosan injection induced pronounced mechanical and thermal hyperalgesia (see control data in Tabs. 1 and 2).
smiles,measurement,setting,value
"CNc1nccc(-c2cc3cc(C(=O)N[C@@H](CN(c4ccccc4)c4ccccc4)c4n[nH]c(=O)o4)ccc3[nH]2)n1 [Compound 13, N—[(S)-2-diphenylamino-1-(5-oxo-4,5-dihydro[1,3,4]oxadiazol-2-yl)ethyl]-2-(2-methylaminopyrimidin-4-yl)-1H-indole-5-carboxamide]",Change in the paw withdrawal time (%),4 h after Zymosan injection,−16.0%
same,Change in the paw withdrawal time (%),5 h after Zymosan injection,−9.7%
same,Change in the paw withdrawal time (%),6 h after Zymosan injection,5.0%
same,Change in the paw withdrawal time (%),7 h after Zymosan injection,3.4%
same,Change in the paw withdrawal time (%),24 h after Zymosan injection,−3.8%
same,Change in the paw withdrawal time (%),Baseline −0.5 h,0.0%
same,persistence of the effect on thermal hyperalgesia after the last administration,30 mg/kg i.p. three times,≥ 18 h
same,side difference in the paw withdrawal time,"30 mg/kg i.p., after the third administration of the substance",no longer possible to observe any side difference at all
same,thermal hyperalgesia compared with the control group,"30 mg/kg i.p., from two hours after Zymosan injection onward",less pronounced
same,reduction of thermal hyperalgesia compared with the NSAID diclofenac,comparative data from a study carried out previously,considerably more powerfully
same,activity in the test model,thermal hyperalgesia,very strong
